Experimental data as given in patent publication US8759340B2, “Benzodiazepinone compounds useful in the treatment of skin conditions” (The Regents of the University of Michigan, priority 2007, dated 2014).

How the values were obtained:
[1] = system: human foreskin fibroblasts (HFF); experiment: Fibroblast proliferation assay; format: cell-based; details: HFF, day 2; for inhibition at 1 µM / inhibition at 0.05 µM / inhibition at 0.1 µM / inhibition at 0.5 µM / inhibition at 5 µM / inhibition at 10 µM: Homo sapiens, 48 h, read-out: Percent Inhibition of Cells Per Concentration of Test Compound; for inhibition at 0.05 µM / inhibition at 0.1 µM / inhibition at 0.5 µM / inhibition at 5 µM / inhibition at 10 µM: Fibroblast
Description: Fibroblasts obtained from the same tissue were grown in monolayer culture using Dulbecco's modified minimal essential medium supplemented with nonessential amino acids and 10% fetal bovine serum (DMEM-FBS) as culture medium. Both keratinocytes and fibroblasts were maintained at 37° C. in an atmosphere of 95% air and 5% CO2. Cells were subcultured by exposure to trypsin/ethylenediamine tetraacetic acid (EDTA) and used at passage 2-4.
(§1) Keratinocyte proliferation was assessed by seeding 4×10^4 cells per well in a 24-well plate using KGM as culture medium. After the cells had attached (overnight), they were washed and triplicate samples were harvested for zero-time counts. DMSO served as a negative control. Proliferation was measured on day 2 by releasing the cells with trypsin/EDTA and enumerating them using a particle counter (Coulter Electronics, Hialeah, Fla.). Fibroblast proliferation studies were conducted in a similar manner except that […] was used as culture medium.
(§2) KC refers to human keratinocytes. HFF refers to human foreskin fibroblasts. The cLogP values were calculated using ChemDraw™ (CambridgeSoft).

[2] = system: human keratinocytes (KC); experiment: Keratinocyte proliferation assay; format: cell-based; details: KC, day 2; for inhibition at 0.05 µM / inhibition at 0.1 µM / inhibition at 0.5 µM / inhibition at 1 µM / inhibition at 5 µM / inhibition at 10 µM: Homo sapiens, Keratinocyte, 48 h, read-out: Percent Inhibition of Cells Per Concentration of Test Compound
Description: Epidermal keratinocytes were isolated from fresh tissue biopsies as described previously (Varani et al., (1994) J. Clin. Invest. 94:1747-1753). Primary and early passage cells were maintained in Keratinocyte Growth Medium (KGM) (Lonza). KGM contains the same basal medium as KBM but is further supplemented with a mixture of growth factors including 0.1 ng per mL EGF, 0.5 μg per mL insulin, and 0.4% bovine pituitary extract. In addition to using low-passage keratinocytes, we also used the HaCat line of immortalized human epidermal keratinocytes in some experiments. The immortalized keratinocytes were handled exactly as low-passage keratinocytes.
as §1, §2

Row | Structure (SMILES) | inhibition at 1 µM ([1]; 1 μM) | inhibition at 0.05 µM ([1]; 0.05 μM) | inhibition at 0.1 µM ([1]; 0.1 μM) | inhibition at 0.5 µM ([1]; 0.5 μM) | inhibition at 5 µM ([1]; 5 μM) | inhibition at 10 µM ([1]; 10 μM) | inhibition at 0.05 µM ([2]; 0.05 μM) | inhibition at 0.1 µM ([2]; 0.1 μM) | inhibition at 0.5 µM ([2]; 0.5 μM) | inhibition at 1 µM ([2]; 1 μM) | inhibition at 5 µM ([2]; 5 μM) | inhibition at 10 µM ([2]; 10 μM) | also measured
1 | CCc1ccc(CC2N=C(c3ccc(O)cc3)c3cc(Cl)ccc3N(C)C2=O)cc1CC (stereo not drawn) [Compound 4, (Z)-3-(3,4-Diethylbenzyl)-7-chloro-5-(4-hydroxyphenyl)-1-methyl-11H-benzo[e][1,4]diazepin-2(3H)-one] |  |  |  |  |  |  |  |  |  |  |  |  | Percent Inhibition of Cells Per Concentration of Test Compound ([1]; 0.05 μM): <20%; Percent Inhibition of Cells Per Concentration of Test Compound ([1]; 0.1 μM): <20%; Percent Inhibition of Cells Per Concentration of Test Compound ([1]; 0.5 μM): <20%; Percent Inhibition of Cells Per Concentration of Test Compound ([1]; 1 μM): <20%; Percent Inhibition of Cells Per Concentration of Test Compound ([1]; 5 μM): ≧90%; Percent Inhibition of Cells Per Concentration of Test Compound ([1]; 10 μM): ≧90%; Percent Inhibition of Cells Per Concentration of Test Compound ([2]; 0.05 μM): <20%; Percent Inhibition of Cells Per Concentration of Test Compound ([2]; 0.1 μM): <20%; Percent Inhibition of Cells Per Concentration of Test Compound ([2]; 0.5 μM): <20%; Percent Inhibition of Cells Per Concentration of Test Compound ([2]; 1 μM): ≧20%; Percent Inhibition of Cells Per Concentration of Test Compound ([2]; 5 μM): ≧90%; Percent Inhibition of Cells Per Concentration of Test Compound ([2]; 10 μM): ≧90%
2 | CCc1cccc(CC)c1CC1N=C(c2ccc(O)cc2)c2cc(Cl)ccc2NC1=O (stereo not drawn) [Compound 3, (Z)-3-(2,6-Diethylbenzyl)-7-chloro-5-(4-hydroxyphenyl)-1H-benzo[e][1,4]diazepin-2(3H)-one] | < 20% | < 20% | < 20% | < 20% | ≥ 90% | ≥ 90% | < 20% | < 20% | < 20% | ≥ 20% | ≥ 90% | ≥ 90% | 
3 | CC(C)c1ccc(C(C)C)c(CC2N=C(c3ccc(O)cc3)c3cc(Cl)ccc3NC2=O)c1 (stereo not drawn) [Compound 9, (Z)-3-(2,5-Diisopropylbenzyl)-7-chloro-5-(4-hydroxyphenyl)-1H-benzo[e][1,4]diazepin-2(3H)-one] | < 20% | < 20% | < 20% | < 20% | ≥ 90% | ≥ 90% | < 20% | < 20% | ≥ 20% | ≥ 20% | ≥ 90% | ≥ 90% | 
4 | CC(C)c1ccc(CC2N=C(c3ccc(O)cc3)c3cc(Cl)ccc3NC2=O)cc1 (stereo not drawn) [Compound 7, (Z)-3-(4-Isopropylbenzyl)-7-chloro-5-(4-hydroxyphenyl)-1H-benzo[e][1,4]diazepin-2(3H)-one] | ≥ 20% | < 20% | < 20% | < 20% | ≥ 90% | ≥ 90% | < 20% | < 20% | < 20% | ≥ 20% | ≥ 90% | ≥ 90% | 
5 | CC(C)c1ccc(CC2N=C(c3ccc(O)cc3)c3cc(Cl)ccc3N(C)C2=O)cc1 (stereo not drawn) [Compound 8, (Z)-3-(4-Isopropylbenzyl)-7-chloro-5-(4-hydroxyphenyl)-1-methyl-1H-benzo[e][1,4]diazepin-2(3H)-one] | < 20% | < 20% | < 20% | < 20% | ≥ 90% | ≥ 90% | < 20% | < 20% | ≥ 20% | ≥ 20% | ≥ 90% | ≥ 90% | 
6 | CCc1cc(CC)cc(CC2N=C(c3ccc(O)cc3)c3cc(Cl)ccc3N(C)C2=O)c1 (stereo not drawn) [Compound 6, (Z)-3-(3,5-Diethylbenzyl)-7-chloro-5-(4-hydroxyphenyl)-1-methyl-1H-benzo[e][1,4]diazepin-2(3H)-one] | < 20% | < 20% | < 20% | < 20% | ≥ 90% | ≥ 90% | < 20% | < 20% | < 20% | < 20% | ≥ 90% | ≥ 90% | 
7 | Cc1cc(C)cc(CC2N=C(c3ccc(O)cc3)c3cc(Cl)ccc3N(C)C2=O)c1 (stereo not drawn) [Compound 2, (Z)-3-(3,5-Dimethylbenzyl)-7-chloro-5-(4-hydroxyphenyl)-1-methyl-1H-benzo[e][1,4]diazepin-2(3H)-one] | < 20% | < 20% | < 20% | < 20% | ≥ 90% | ≥ 90% | < 20% | < 20% | ≥ 20% | ≥ 20% | ≥ 90% | ≥ 90% | 
8 | CC(C)c1ccc(C(C)C)c(CC2N=C(c3ccc(O)cc3)c3cc(Cl)ccc3N(C)C2=O)c1 (stereo not drawn) [Compound 10, (Z)-3-(2,5-Diisopropylbenzyl)-7-chloro-5-(4-hydroxyphenyl)-1-methyl-1H-benzo[e][1,4]diazepin-2(3H)-one] | < 20% | < 20% | < 20% | < 20% | ≥ 90% | ≥ 90% | < 20% | < 20% | < 20% | ≥ 20% | ≥ 90% | ≥ 90% | 
9 | CCc1cc(CC)cc(CC2N=C(c3ccc(O)cc3)c3cc(Cl)ccc3NC2=O)c1 (stereo not drawn) [Compound 5, (Z)-3-(3,5-Diethylbenzyl)-7-chloro-5-(4-hydroxyphenyl)-1H-benzo[e][1,4]diazepin-2(3H)-one] | < 20% | < 20% | < 20% | < 20% | ≥ 90% | ≥ 90% | < 20% | < 20% | ≥ 20% | ≥ 20% | ≥ 90% | ≥ 90% | 
